# Paper PMC4644980, “The FDA-approved natural product dihydroergocristine reduces the production of the Alzheimer’s disease amyloid-β peptides” (Scientific Reports, 2015)
# Columns and labels:
# [1] = tested on: endogenous γ-secretase in fibroblast cells from an AD patient; experiment: Western blot of APP-CTF in fibroblast cells from an AD patient (PS1 A246E); type: cell-based, human; conditions: dose series
# Experimental: Fibroblast cells from an AD patient carrying the PS1 missense mutation A246E were treated with various compounds, and the levels of APP-FL, APP-CTF and β-actin, as well as Aβ, were measured as described above. […] (n = 3). […] The levels of β-actin served as equal loading controls.
# (§3) Western Blot analysis of full-length APP, APP-CTFs, Notch1-NICD and γ-secretase components was carried out according to the procedures described in the Supplementary information[31].
# [2] = target: γ-secretase (Homo sapiens, UniProt P49768+Q92542); experiment: cell-based luciferase reporter assay for γ-secretase inhibition (T100 cells); design: endogenous in cells; host or cells: T-REx HeLa cells (T100) stably transfected with the substrate C99-Gal4-VP16 and a luciferase reporter; conditions: 24 h, read-out: IC50, inhibition of APP-C99 processing
# Experimental: To identify natural product-based bioactive inhibitors of γ-secretase, we screened 417 natural products by using a cell-based luciferase reporter assay for γ-secretase inhibition (T100, see Methods), which we recently developed in TREx HeLa cells according to the methodology described in ref. [17]. […] Thus, this assay is sufficiently sensitive to detect the inhibitory effects of 100 nM DAPT on cellular γ-secretase activity. Additionally, this new cell-based assay tolerated up to 2% DMSO, which is a great advantage when screening inhibitors in a high-throughput format.
# T-REx-HeLa cells (T100) stably overexpressing C99-Gal4-VP16 and luciferase were generated according to the method described in refs [17],[30]. For details, see Supplementary Information.
# Cell-based γ-secretase assays were performed using the T100 cell line according to the methods detailed in ref. [30] (for details, see Supplementary information). […]
# concentrations of substrate at 37 °C for 4 h, after which the enzymatic reactions were stopped by adding 0.5% SDS (final concentration). The samples were analyzed by Western Blot for AICD-Flag or Aβ. […]
# [3] = tested on: γ-secretase (APP-CTF processing) in HEK293 cells; experiment: Western blot of endogenous APP-FL and APP-CTF in HEK293 cells; type: cell-based; conditions: 24 h
# Experimental: (§4) The levels of β-actin were used as equal loading controls. […] The levels of β-actin served as equal loading controls.
# as §3
# [4] = tested on: γ-secretase subunits (mNCT, PS1-NTF); experiment: Western blot of γ-secretase subunits in HEK293 or fibroblast cells; type: cell-based
# Experimental: for 10 min before adding 25 µl of the stop solution. The fluorescence was monitored with a microplate reader (emission at 590 nm after excitation at 560 nm).
# Western blot and antibodies
# WT HEK293 or fibroblast cells were collected and lysed in 1% Nonidet P-40-HEPES buffer, and equal amounts of proteins [normalized by BCA (Pierce)] were separated by SDS-PAGE onto a 12% Tris-glycine gel, transferred onto a PVDF membrane (Bio-Rad, USA) and further probed with antibody CT15 (for APP/APP-CTFs, 1:2000, […]
# (1:1000; Abcam, Cambridge, MA, USA) for PS1-NTF, UD-1 (for Pen-2, 1:500; a gift of Dr. Helena Karlström, Karolinska Institute, Sweden), NCT164 (for NCT, 1:1000; BD Bioscience, Bedford, MA, USA) as well as with an antibody for β-actin (1:2000, Abmart). For the analysis of Notch NICD, cell extracts were separated by SDS-PAGE onto a 10% Tris-glycine gel, transferred onto a PVDF membrane and blotted for NICD with an anti-Notch Ab1744 antibody (for the free N-terminus of NICD, 1:500, Cell Signaling Technology, Beverly, MA, USA).
# Samples from in vitro γ-secretase activity assays were run on 16% Tricine-SDS-PAGE gels and transferred onto PVDF to detect Aβ and AICD-Flag with 6E10 (1:1000, Covance, Berkeley, CA, USA) and CT15 antibodies (1:5000, Sigma-Aldrich), […]
# [5] = tested on: Aβ production in fibroblast cells from an AD patient; experiment: Aβ total ELISA of media from fibroblast cells from an AD patient (PS1 A246E); type: cell-based, human
# Experimental: (§1) The levels of β-actin were used as equal loading controls. […] The Aβ data are expressed as a percentage of the control value and presented as the means ± sd. […] Fibroblast cells from an AD patient carrying the PS1 missense mutation A246E were treated with various compounds, and the levels of APP-FL, APP-CTF and β-actin, as well as Aβ, were measured as described above. The Aβ data are expressed as a percentage of the control value and presented as the means ± sd. (n = 3). […] The levels of β-actin served as equal loading controls. The densitometric quantifications for the Western Blots are shown in Supplementary Fig. S2. For full blots, please see Supplementary Fig. S9.
# (§2) Aβ1-x peptides secreted in the cell media were quantitatively measured by ELISA (IBL, Gunma, Japan) according to the standard protocol from the manufacturer. Aβ40 and Aβ42 generated in the C100-Flag γ-secretase assays stopped with 0.5% SDS (final concentration) were quantified with the human Beta Amyloid or [1–42] colorimetric ELISA kit, respectively.
# [6] = tested on: human Notch1 extracellular truncation (NEXT) cleavage by γ-secretase; experiment: cleavage of human Notch1 NEXT (NICD Western blot) in HEK293 cells; type: cell-based
# Experimental: as §4, §3
# [7] = tested on: Aβ production in HEK293 cells; experiment: Aβ total ELISA of media from HEK293 cells; type: cell-based
# Experimental: as §1, §2
smiles,measurement,setting,value
"C[C@H](NC(=O)Cc1cc(F)cc(F)c1)C(=O)N[C@H](C(=O)OC(C)(C)C)c1ccccc1 [DAPT, N-[N-(3,5-difluorophenylacetyl)-L-alanyl-]-(S)-phenylglycine-t-butyl ester]",accumulation of APP-CTFs,[1],dose-dependent accumulation
same,IC50,[2],~200 nM
same,accumulation of the carboxy-terminal fragments of APP (APP-CTFs),[3],dose-dependent accumulation
same,"assembly and maturation of the protease complex (mNCT, PS1-NTF)",[4],not altered
same,total Aβ levels,[5],markedly reduced
same,preference for APP-based versus Notch-based substrate,[6]; HEK293 cells overexpressing hAPP or Notch1-NEXT,showed no preference
same,production of intracellular human NICD,"[6]; HEK293 cells overexpressing human NEXT, 1 μM",completely blocked
same,total Aβ levels,[7],markedly reduced
